Measurements as given in ChEMBL document CHEMBL1909046, “DrugMatrix in vitro pharmacology data”.

Legend:
[1] = DRUGMATRIX: Serotonin (5-Hydroxytryptamine) 5-HT3 radioligand binding (ligand: [3H] GR-65630); type: cell membranes, Membrane; details: hek293; Not Active = under 50% inhibition at 10 µM
[2] = biological target: Sodium-dependent noradrenaline transporter (Homo sapiens, UniProt P23975); assay: DRUGMATRIX: Norepinephrine Transporter radioligand binding (ligand: [125I] RTI-55); type: cell membranes, MDCK, Membrane; details: mdck; Not Active = under 50% inhibition at 10 µM
Sequence of Sodium-dependent noradrenaline transporter (P23975 whole entry): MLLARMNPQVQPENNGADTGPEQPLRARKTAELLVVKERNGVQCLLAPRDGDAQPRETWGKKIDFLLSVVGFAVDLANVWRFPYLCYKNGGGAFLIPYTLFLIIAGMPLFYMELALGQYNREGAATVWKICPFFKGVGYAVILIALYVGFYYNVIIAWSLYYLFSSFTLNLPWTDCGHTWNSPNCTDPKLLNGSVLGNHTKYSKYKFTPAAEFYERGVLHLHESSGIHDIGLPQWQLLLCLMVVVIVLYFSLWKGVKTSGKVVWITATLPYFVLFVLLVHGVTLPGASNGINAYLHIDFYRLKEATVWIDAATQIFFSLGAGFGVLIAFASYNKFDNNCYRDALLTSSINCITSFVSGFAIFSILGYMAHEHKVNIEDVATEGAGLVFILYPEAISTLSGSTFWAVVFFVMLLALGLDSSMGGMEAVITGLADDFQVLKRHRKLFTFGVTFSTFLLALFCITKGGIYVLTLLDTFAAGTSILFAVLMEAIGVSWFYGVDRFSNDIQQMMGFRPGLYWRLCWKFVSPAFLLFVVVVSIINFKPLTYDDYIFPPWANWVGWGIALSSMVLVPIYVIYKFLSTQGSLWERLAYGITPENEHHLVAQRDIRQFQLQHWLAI

[3] = biological target: Matrix metalloproteinase-9 (Homo sapiens, UniProt P14780); assay: biochemical; type: cell-based;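 further: inhibition of isolated MMP-9 enzyme activity toward a synthetic peptide substrate, from the DrugMatrix protease screening panel; in other assays of this panel Not Active means under 50% inhibition at 10 µM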
Sequence of Matrix metalloproteinase-9 (P14780 whole entry): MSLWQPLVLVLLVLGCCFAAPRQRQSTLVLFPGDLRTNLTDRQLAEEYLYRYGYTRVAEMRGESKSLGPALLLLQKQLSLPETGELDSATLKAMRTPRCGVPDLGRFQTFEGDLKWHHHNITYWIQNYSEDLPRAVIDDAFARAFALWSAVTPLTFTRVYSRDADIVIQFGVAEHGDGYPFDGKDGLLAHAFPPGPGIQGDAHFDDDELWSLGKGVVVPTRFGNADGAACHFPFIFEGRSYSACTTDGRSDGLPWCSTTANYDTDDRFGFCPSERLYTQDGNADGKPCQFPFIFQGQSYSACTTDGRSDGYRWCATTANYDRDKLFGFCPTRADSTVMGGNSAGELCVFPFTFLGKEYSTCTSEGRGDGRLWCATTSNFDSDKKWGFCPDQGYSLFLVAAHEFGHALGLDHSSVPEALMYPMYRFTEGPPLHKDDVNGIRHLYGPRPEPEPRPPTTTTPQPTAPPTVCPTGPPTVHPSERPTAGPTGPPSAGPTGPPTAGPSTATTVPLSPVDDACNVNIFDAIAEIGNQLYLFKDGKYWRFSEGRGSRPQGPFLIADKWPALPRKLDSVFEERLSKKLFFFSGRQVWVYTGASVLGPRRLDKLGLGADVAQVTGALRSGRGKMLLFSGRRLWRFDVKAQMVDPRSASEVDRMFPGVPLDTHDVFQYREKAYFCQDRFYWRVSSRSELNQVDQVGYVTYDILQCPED

[4] = DRUGMATRIX: Glutamate, AMPA radioligand binding (ligand: [3H] AMPA); type: cell membranes, Rattus norvegicus, Wistar, Cerebral cortex, Membrane; details: Not Active = under 50% inhibition at 10 µM
[5] = DRUGMATRIX: beta-Lactamase enzyme inhibition (substrate: Nitrocefin); set-up: species or system Bacillus cereus; details: Not Active = under 50% inhibition at 10 µM
[6] = biological target: T1, Type-2 angiotensin II receptor (Homo sapiens, UniProt P50052); type: cell-based; details: cho-k1; further: in other assays of this panel Not Active means under 50% inhibition at 10 µM
T1 sequence (P50052 whole entry): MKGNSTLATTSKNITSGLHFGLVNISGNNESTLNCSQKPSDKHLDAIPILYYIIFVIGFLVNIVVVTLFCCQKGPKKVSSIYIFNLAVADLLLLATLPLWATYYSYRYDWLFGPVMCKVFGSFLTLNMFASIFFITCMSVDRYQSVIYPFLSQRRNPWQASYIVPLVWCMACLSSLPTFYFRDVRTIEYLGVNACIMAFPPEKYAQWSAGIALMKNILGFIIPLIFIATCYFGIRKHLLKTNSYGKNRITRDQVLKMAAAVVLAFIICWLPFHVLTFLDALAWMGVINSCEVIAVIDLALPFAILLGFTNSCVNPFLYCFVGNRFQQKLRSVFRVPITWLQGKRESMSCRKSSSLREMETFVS

Vasopressin V1a receptor = Vasopressin V1a receptor (Homo sapiens, UniProt P37288); type: cell membranes, Membrane; details: hek293; further: in other assays of this panel Not Active means under 50% inhibition at 10 µM
Sequence of Vasopressin V1a receptor (P37288 whole entry): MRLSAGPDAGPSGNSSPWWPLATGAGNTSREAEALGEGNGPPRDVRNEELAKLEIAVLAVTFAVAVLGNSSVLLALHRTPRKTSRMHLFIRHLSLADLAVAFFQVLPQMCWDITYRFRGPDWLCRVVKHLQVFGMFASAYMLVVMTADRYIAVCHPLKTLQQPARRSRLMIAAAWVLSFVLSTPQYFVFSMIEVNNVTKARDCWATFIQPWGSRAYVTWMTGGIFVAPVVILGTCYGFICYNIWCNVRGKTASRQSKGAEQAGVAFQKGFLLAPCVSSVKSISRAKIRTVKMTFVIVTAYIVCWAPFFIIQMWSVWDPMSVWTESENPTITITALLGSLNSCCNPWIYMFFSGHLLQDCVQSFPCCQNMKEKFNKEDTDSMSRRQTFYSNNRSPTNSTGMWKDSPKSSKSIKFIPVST

CCCCOc1ccc(OCCCN2CCOCC2)cc1 [PRAMOXINE]
Not Active: IC50 [1] | Ki [1] | IC50 [2] | IC50 [3] | IC50 [4] | Ki [4] | IC50 [5] | Ki [5] | IC50 [6] | IC50 (Vasopressin V1a receptor)

O=C(C1CCCCC1)N1CC(=O)N2CCc3ccccc3C2C1 (centres undefined) [PRAZIQUANTEL]
Not Active: IC50 [1] | Ki [1] | IC50 [2] | IC50 [3] | IC50 [4] | Ki [4] | IC50 [5] | Ki [5] | IC50 [6] | IC50 (Vasopressin V1a receptor)

CCN(CC)CCOC(=O)c1ccc(N)cc1 [PROCAINE]
Not Active: IC50 [1] | Ki [1] | IC50 [2] | IC50 [3] | IC50 [4] | Ki [4] | IC50 [5] | Ki [5] | IC50 [6] | IC50 (Vasopressin V1a receptor)

CCCN(CCC)C(=O)C(CCC(=O)O)NC(=O)c1ccccc1 (centres undefined) [PROGLUMIDE]
Not Active: IC50 [1] | Ki [1] | IC50 [2] | IC50 [3] | IC50 [4] | Ki [4] | IC50 [5] | Ki [5] | IC50 [6] | IC50 (Vasopressin V1a receptor)

NC(=O)c1cnccn1 [PYRAZINAMIDE]
Not Active: IC50 [1] | Ki [1] | IC50 [2] | IC50 [3] | IC50 [4] | Ki [4] | IC50 [5] | Ki [5] | IC50 [6] | IC50 (Vasopressin V1a receptor)

OC(CCN1CCCCC1)(c1ccccc1)C1CCCCC1 (centres undefined) [TRIHEXYPHENIDYL]
Not Active: IC50 [1] | Ki [1] | IC50 [2] | IC50 [3] | IC50 [4] | Ki [4] | IC50 [5] | Ki [5] | IC50 [6] | IC50 (Vasopressin V1a receptor)

Cc1cc2cc3c(C)cc(=O)oc3c(C)c2o1 [TRIOXSALEN]
Not Active: IC50 [1] | Ki [1] | IC50 [2] | IC50 [3] | IC50 [4] | Ki [4] | IC50 [5] | Ki [5] | IC50 [6] | IC50 (Vasopressin V1a receptor)

CCCC(CCC)C(=O)O [VALPROIC ACID]
Not Active: IC50 [1] | Ki [1] | IC50 [2] | IC50 [3] | IC50 [4] | Ki [4] | IC50 [5] | Ki [5] | IC50 [6] | IC50 (Vasopressin V1a receptor)

CCC1=C[C@@H]2CN(C1)Cc1c([nH]c3ccccc13)[C@@](C(=O)OC)(c1cc3c(cc1OC)N(C)[C@H]1[C@@](O)(C(=O)OC)[C@H](OC(C)=O)[C@]4(CC)C=CCN5CC[C@]31[C@@H]54)C2 [VINORELBINE]
Not Active: IC50 [1] | Ki [1] | IC50 [2] | IC50 [3] | IC50 [4] | Ki [4] | IC50 [5] | Ki [5] | IC50 [6] | IC50 (Vasopressin V1a receptor)

CADMIUM DICHLORIDE
Not Active: IC50 [1] | Ki [1] | IC50 [2] | Ki [2] | IC50 [3] | Ki [3] | IC50 [4] | Ki [4] | IC50 [5] | Ki [5] | IC50 [6] | Ki [6] | IC50 (Vasopressin V1a receptor) | Ki (Vasopressin V1a receptor)
